Measured values published in ChEMBL document CHEMBL3112416, “Designing analogs of ticlopidine, a wall teichoic acid inhibitor, to avoid formation of its oxidative metabolites” (Bioorg Med Chem Lett, 2014).

Assays:
Staphylococcus aureus [1] = test: Ratio of MIC for community acquired methicillin-resistant Staphylococcus aureus USA300 in presence of cefuroxime to MIC for community acquired methicillin-resistant Staphylococcus aureus USA300 by checkerboard broth microdilution assay; type: functional
Staphylococcus aureus [2] = test: Ratio of MIC for community acquired methicillin-resistant Staphylococcus aureus USA300 in presence of targocil to MIC for community acquired methicillin-resistant Staphylococcus aureus USA300 by checkerboard broth microdilution assay; type: functional
[3] = Displacement of UDP-[14C]GlcNAc from TarO (unknown origin) after 2.5 hrs by scintillation counting analysis

| Compound | fractional inhibitory concentration index (FICI) (Staphylococcus aureus [1]) | fractional inhibitory concentration index (FICI) (Staphylococcus aureus [2]) | IC50 [3] |
| --- | --- | --- | --- |
| Clc1ccccc1CN1CCCC1 | 2 | 2 | – |
| Clc1ccccc1CN1CCc2ccccc2C1 | 0.13 | 8.1 | 520 µM |
| Clc1ccccc1CC1CCc2ccccc2N1 (stereo not drawn) | 0.19 | 8.3 | 270 µM |
| Clc1ccccc1CN1CCc2sccc2C1 [TICLOPIDINE] | 0.13 | 8.3 | 150 µM |
| O=C(O)C(c1ccccc1Cl)N1CCc2sccc2C1 (racemic) | 0.75 | 2 | – |
| Fc1ccccc1CN1CCc2ccccc2C1 | 0.25 | 8 | – |
| Clc1ccccc1C[n+]1ccc2ccccc2c1 | 2 | 2 | > 5000 µM |
| c1cc2c(s1)CCNC2 | 2 | 2 | 4300 µM |
| Clc1cccc(CN2CCc3ccccc3C2)c1 | 2 | 8.1 | 270 µM |
| O=C(O)C(c1ccccc1Cl)N1CCc2ccccc2C1 (racemic) | 0.75 | 2 | 440 µM |
| Oc1ccc2c(c1)CN(Cc1ccccc1Cl)CC2 | 2 | 4.5 | – |
| CCN1CCN(Cc2ccccc2Cl)CC1 | 2 | 2 | – |
| FC(F)(F)c1ccccc1CN1CCc2ccccc2C1 | 0.094 | 8.3 | 350 µM |
| COC(=O)[C@H](c1ccccc1Cl)N1CCc2sccc2C1 [CLOPIDOGREL] | 0.19 | 8.1 | 150 µM |
| Clc1ccccc1CN1CCC2CCCCC2C1 (stereo not drawn) | 2 | 2 | – |
| c1ccc(CN2CCc3ccccc3C2)cc1 | 0.63 | 1.3 | 270 µM |
| Clc1ccc2c(c1)CCN(Cc1ccccc1Cl)C2 | 2 | 4.5 | 190 µM |
| Clc1ccc(CN2CCc3ccccc3C2)cc1 | 2 | 8.1 | – |
| c1ccc2c(c1)CCN(Cc1ccncc1)C2 | 2 | 2 | – |
| COC(=O)C(c1ccccc1Cl)N1CCc2ccccc2C1 (racemic) | 0.19 | 8.2 | 190 µM |
| NC(=O)C(c1ccccc1C(F)(F)F)N1CCc2ccccc2C1 (racemic) | 1 | 2 | – |
| Clc1ccccc1CN1CCCCC1 | 2 | 2 | 1100 µM |
| COC(=O)C(c1ccccc1C(F)(F)F)N1CCc2ccccc2C1 (racemic) | 0.13 | 8.3 | – |
| O=[N+]([O-])c1ccccc1CN1CCc2ccccc2C1 | 0.19 | 8.3 | – |
| O=C(O)C(c1ccccc1C(F)(F)F)N1CCc2ccccc2C1 (racemic) | 2 | 2 | – |
| c1ccc2c(c1)CCN(Cc1ccc3ccccc3c1)C2 | 0.31 | 8.1 | 220 µM |
| Cc1ccccc1CN1CCc2ccccc2C1 | 0.13 | 8.1 | – |
